The text below walks through data of patent US20220073536A1 (Rigel Pharmaceuticals, Inc., priority 2003, published 2022).

Where a name gives a salt, the structure may show the parent alone.

Assay [1] deals with cultured human mast cells (CHMC). As to the kind of experiment: CHMC low cell density ionomycin activation: tryptase assay. In kind it is cell-based. The conditions noted are these: low cell density CHMC, tryptase readout, 3 pt, read-out: LD Tryptase, CHMC, Iono, 3 pt.
Assay [2] shares this test system. Kind of assay: CHMC low cell density IgE activation: tryptase assay. In kind it is cell-based. The conditions noted are these: low cell density CHMC, IgE activation, tryptase readout. Summed up: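 Anti-IgE-driven degranulation of cultured human mast cells at low density, 1000–1500 cells/well, was induced over 30 min at 37 °C. It was scored by supernatant tryptase activity on a fluorogenic substrate.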

Where [3] appears, read: 3 pt, read-out: LD Tryptase, CHMC, IgE, 3 pt.
Where [4] appears, read: 8 pt, read-out: LD Tryptase, CHMC, IgE, 8 pt.
[5] abbreviates: Homo sapiens, Mast cell, 3 pt, read-out: LD Tryptase, CHMC, IgE, 3 pt.
The mark [6] stands for this setting: Homo sapiens, Mast cell, 8 pt, read-out: LD Tryptase, CHMC, IgE, 8 pt.

For `Cn1ncc2ccc(Nc3ncc(F)c(Nc4ccc5c(n4)NCC(C)(C)O5)n3)cc21` [Compound 1052, N4-(3,4-Dihydro-2,2-dimethyl-4H-5-pyrid[1,4]oxazin-6-yl)-5-fluoro-N2-(1-methylindazol-6-yl)-2,4-pyrimidinediamine], the IC50 in assay [1], in assay [2] (setting [3]) and in assay [2] (setting [4]) was under 10 µM each time.
With `CNC(=O)COc1cccc(Nc2ncc(F)c(Nc3ccc4c(n3)NCC(C)(C)O4)n2)c1` [Compound 1053, N4-(3,4-Dihydro-2,2-dimethyl-4H-5-pyrid[1,4]oxazin-6-yl)-5-fluoro-N2-[3-(N-methylamino)carbonylmethyleneoxyphenyl]-2,4-pyrimidinediamine], the IC50 in assay [1] was over 10 µM; in assay [2] (setting [3]), under 10 µM; in assay [2] (setting [4]), under 10 µM.
`CNC(=O)c1ccc(Nc2ncc(F)c(Nc3ccc4c(n3)NC(=O)C(C)(C)O4)n2)cc1Cl` [Compound 1054, N2-[3-Chloro-4-(N-methylamino)carbonylphenyl]-N4-(2,2-dimethyl-3-oxo-4H-5-pyrid[1,4]oxazin-6-yl)-5-fluoro-2,4-pyrimidinediamine]: the IC50 was over 10 µM in assay [1], under 10 µM in assay [2] (setting [3]) and under 10 µM in assay [2] (setting [4]).
With `CC1(C)Oc2ccc(Nc3nc(Nc4ccc5c(c4)OCCO5)ncc3F)nc2NC1=O` [Compound 1055, N4-(2,2-Dimethyl-3-oxo-4H-5-pyrid[1,4]oxazin-6-yl)-N2-(3,4-ethylenedioxyphenyl)-5-fluoro-2,4-pyrimidinediamine], the IC50 is over 10 µM in assay [1], under 10 µM in assay [2] (setting [3]) and under 10 µM in assay [2] (setting [4]).
For the compound `Cn1ncc2ccc(Nc3ncc(F)c(Nc4ccc5c(n4)NC(=O)C(C)(C)O5)n3)cc21` [Compound 1056, N4-(2,2-Dimethyl-3-oxo-4H-5-pyrid[1,4]oxazin-6-yl)-5-fluoro-N2-[1-methylindazol-6-yl]-2,4-pyrimidinediamine Hydrogen Chloride Salt], the results for the IC50 in assay [1], in assay [2] (setting [3]) and in assay [2] (setting [4]) were over 10 µM, under 10 µM and under 10 µM, respectively.
Regarding `Cn1ncc2ccc(Nc3ncc(F)c(Nc4ccc5c(n4)NC(=O)C(C)(C)O5)n3)cc21` [Compound 1057, N4-(2,2-Dimethyl-3-oxo-4H-5-pyrid[1,4]oxazin-6-yl)-5-fluoro-N2-[1-methylindazol-6-yl]-2,4-pyrimidinediamine p-Toluenesulfonic Acid Salt], the IC50 is over 10 µM in assay [1], under 10 µM in assay [2] (setting [3]) and under 10 µM in assay [2] (setting [4]).
Turning to `CC(=O)N1CCN(c2cccc(Nc3ncc(F)c(NC4CCC4)n3)c2)CC1` [Compound 1085, N2-[3-(4-Acetylpiperazino)phenyl]-N4-cyclobutyl-5-fluoro-2,4-pyrimidinediamine], the IC50 is over 10 µM in assay [1] (Homo sapiens, Mast cell) and under 10 µM in assay [2] (setting [5]).
As for `CC(C)(C)c1cc(Nc2ncc(F)c(Nc3ccc4c(n3)NC(=O)CO4)n2)n[nH]1` [Compound 1086, N2-(5-tert-Butylpyrazol-3-yl)-5-fluoro-N4-(3-oxo-2H,4H-5-pyrid[1,4]oxazin-6-yl)-2,4-pyrimidinediamine], the results for the IC50 in assay [1] and in assay [2] (setting [3]) were over 10 µM and under 10 µM, respectively.
With `Cc1cc(C)cc(Nc2ncc(F)c(NC3CCC3)n2)c1` [Compound 1087, N4-Cyclobutyl-N2-(3,5-dimethylphenyl)-5-fluoro-2,4-pyrimidinediamine], the IC50 is over 10 µM in assay [1] (Homo sapiens, Mast cell); under 10 µM in assay [2] (setting [5]); under 10 µM in assay [2] (setting [6]).
Consider `COc1cc(Nc2ncc(F)c(NC3CCC3)n2)cc(OC)c1` [Compound 1088, N4-Cyclobutyl-N2-(3,5-dimethoxyphenyl)-5-fluoro-2,4-pyrimidinediamine], for which the IC50 in assay [1] (Homo sapiens, Mast cell) was over 10 µM; in assay [2] (setting [5]), under 10 µM; in assay [2] (setting [6]), under 10 µM.
Turning to `COc1cc(Nc2ncc(F)c(NC3CCC3)n2)cc(C(F)(F)F)c1` [Compound 1089, N4-Cyclobutyl-5-fluoro-N2-(3-methoxy-5-trifluoromethylphenyl)-2,4-pyrimidinediamine], the IC50 in assay [1] (Homo sapiens, Mast cell) was over 10 µM; in assay [2] (setting [5]), under 10 µM; in assay [2] (setting [6]) it was under 10 µM.
In the case of `CC(C)(C)c1cc(Nc2nc(Nc3cccc(N4CCOCC4)c3)ncc2F)n[nH]1` [Compound 1090], the IC50 in assay [1] (Homo sapiens, Mast cell) is over 10 µM; in assay [2] (setting [5]), under 10 µM; in assay [2] (setting [6]), under 10 µM.
Turning to `CC(=O)N1CCN(c2cccc(Nc3ncc(F)c(Nc4cc(C(C)(C)C)[nH]n4)n3)c2)CC1` [Compound 1091, N2-[3-(4-Acetylpiperazino)phenyl]-N4-(5-tert-butyl-1H-pyrazol-3-yl)-5-fluoro-2,4-pyrimidinediamine], the IC50 is over 10 µM in assay [1] (Homo sapiens, Mast cell); under 10 µM in assay [2] (setting [5]); under 10 µM in assay [2] (setting [6]).
`C[C@@H]1Oc2ccc(Nc3nc(Nc4cc(C(C)(C)C)[nH]n4)ncc3F)nc2NC1=O` [Compound 1092, (S)-N2-(5-tert-Butyl-1H-pyrazol-3-yl)-5-fluoro-N4-(2-methyl-3-oxo-2H,4H-5-pyrid[1,4]oxazin-6-yl)-2,4-pyrimidinediamine]: the IC50 in assay [1] is over 10 µM; in assay [2] (setting [3]) it was under 10 µM; in assay [2] (setting [4]) it was under 10 µM.
As for `COc1ccc(Nc2ncc(F)c(Nc3cccc(NC4=NCCN4)c3)n2)cc1F` [Compound 1094, 5-Fluoro-N2-(3-fluoro-4-methoxyphenyl)-N4-[3-(N-2-imidazolin-2-yl)aminophenyl]-2,4-pyrimidinediamine], the IC50 in assay [1] (Homo sapiens, Mast cell) was over 10 µM; in assay [2] (setting [5]), under 10 µM.
With `Cc1cc(C)cc(Nc2ncc(F)c(Nc3cccc(NC4=NCCN4)c3)n2)c1` [Compound 1095, N2-(3,5-Dimethylphenyl)-5-fluoro-N4-[3-(N-2-imidazolin-2-yl)aminophenyl]-2,4-pyrimidinediamine], the IC50 in assay [1] (Homo sapiens, Mast cell) was over 10 µM; in assay [2] (setting [5]) it was under 10 µM.
For the compound `COc1cc(Nc2ncc(F)c(Nc3cccc(NC4=NCCN4)c3)n2)cc(OC)c1` [Compound 1096, N2-(3,5-Dimethoxyphenyl)-5-fluoro-N4-[3-(N-2-imidazolin-2-yl)aminophenyl]-2,4-pyrimidinediamine], the IC50 was over 10 µM in assay [1] (Homo sapiens, Mast cell); under 10 µM in assay [2] (setting [5]); over 10 µM in assay [2] (setting [6]).
Regarding `Fc1cnc(Nc2cccc(N3CCOCC3)c2)nc1Nc1cccc(NC2=NCCN2)c1` [Compound 1097, 5-Fluoro-N4-[3-(N-2-imidazolin-2-yl)aminophenyl]-N2-(3-morpholinophenyl)-2,4-pyrimidinediamine], the IC50 is over 10 µM in assay [1] (Homo sapiens, Mast cell) and over 10 µM in assay [2] (setting [5]).
As for `CCOC(=O)N1CCN(c2cccc(Nc3ncc(F)c(Nc4cccc(NC5=NCCN5)c4)n3)c2)CC1` [Compound 1098, N2-[3-(4-Ethoxycarbonylpiperazino)phenyl]-5-fluoro-N4-[3-(N-2-imidazolin-2-yl)aminophenyl]-2,4-pyrimidinediamine], the IC50 in assay [1] (Homo sapiens, Mast cell) was over 10 µM; in assay [2] (setting [5]), over 10 µM.
Take `CN1CCN(c2ccc(Nc3ncc(F)c(Nc4cccc(NC5=NCCN5)c4)n3)cc2)CC1` [Compound 1099, 5-Fluoro-N4-[3-(N-2-imidazolin-2-yl)aminophenyl]-N2-[4-(4-methylpiperazino)phenyl]-2,4-pyrimidinediamine]: the IC50 in assay [1] (Homo sapiens, Mast cell) was over 10 µM; in assay [2] (setting [5]) it was over 10 µM.
On to `COC(=O)N1CCN(c2ccc(Nc3ncc(F)c(Nc4cccc(NC5=NCCN5)c4)n3)cc2)CC1` [Compound 1100, 5-Fluoro-N4-[3-(N-2-imidazolin-2-yl)aminophenyl]-N2-[4-(4-methoxycarbonylpiperazino)phenyl]-2,4-pyrimidinediamine], for which the IC50 in assay [1] (Homo sapiens, Mast cell) was over 10 µM; in assay [2] (setting [5]), over 10 µM.
